Measurements from US20100240709A1, “Sulfoximine Derivatives as p38 MAP Kinase Inhibitors” (priority 2005, published 2010).

Molecular target: p38 MAP kinase (Homo sapiens, UniProt Q16539)
Assay: p-38 MAPK Enzyme assay (in vitro ELISA, ATF-2 substrate)
Format: biochemical
Conditions: ELISA detection of phosphorylated ATF-2
Source text: The compounds were screened using an in vitro ELISA assay for p38 MAP kinase activity. Activated p38 MAP kinase during the course of its biological function phosphorylates its substrates. The assay was based on the detection of a phosphorylated p38 MAP kinase substrate using ATF-2 as the biological substrate. More the activity of the p38 MAP kinase inhibitor in the reaction mixture less will be the amount of active p38 MAP kinase available to phosphorylate ATF-2. So, lower OD value will indicate the higher inhibition of p38 MAP kinase by the specific p38 MAP kinase inhibitor. The quantitation of phosphorylated ATF-2 at varying concentrations of p38 MAP kinase inhibitor was used to determine the IC50 by fitting the results to a logistic dose-response program (Graphpad Prism, CA). IC50 was defined as the concentration of compound required to achieve 50% inhibition of p38 MAP kinase activity.

Sequence of p38 MAP kinase (Q16539 whole entry): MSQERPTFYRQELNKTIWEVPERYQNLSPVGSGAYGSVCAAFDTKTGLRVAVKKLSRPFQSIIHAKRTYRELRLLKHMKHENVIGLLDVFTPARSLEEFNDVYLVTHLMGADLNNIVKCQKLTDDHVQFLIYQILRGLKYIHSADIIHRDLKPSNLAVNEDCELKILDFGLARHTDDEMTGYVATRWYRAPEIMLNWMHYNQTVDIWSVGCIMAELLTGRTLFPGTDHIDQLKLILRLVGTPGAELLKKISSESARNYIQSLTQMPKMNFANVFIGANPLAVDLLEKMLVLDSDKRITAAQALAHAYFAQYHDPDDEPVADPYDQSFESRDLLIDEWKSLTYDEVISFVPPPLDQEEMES

SMILES	IC50
CCc1nc(-c2ccccc2)c(-c2ccnc(N=S(=O)(c3ccccc3)C3CCCC3)c2)s1 (single isomer, unassigned; (-)) [Example 29]	2.6 µM
CCc1nc(-c2cccc(C)c2)c(-c2ccnc(N=S(=O)(c3ccccc3)C3CCCC3)c2)s1 (stereo not shown) [Example 1, S-Cyclopentyl-S-phenyl-N-[4-(2-ethyl-4-(3-methylphenyl)-1,3-thiazol-5-yl)-pyridine-2-yl]-sulfoximine]	0.78 µM
CCc1nc(-c2cccc(C)c2)c(-c2ccnc(N=S(=O)(C3CCCCC3)C3CCCCC3)c2)s1 [Example 2, S,S-dicyclohexyl-N-[4-(2-ethyl-4-m-tolyl-thiazol-5-yl)-pyridine-2-yl]sulfoximine]	1.2 µM
CCc1nc(-c2cccc(C)c2)c(-c2ccnc(N=S(C)(=O)c3ccc(OC)cc3)c2)s1 (stereo not shown) [Example 3, S-Methyl-S-4-methoxyphenyl-N-[4-(2-ethyl-4-m-tolyl-thiazol-5-yl)-pyridine-2-yl]-sulfoximine]	1.1 µM
CCc1nc(-c2cccc(C)c2)c(-c2ccnc(N=S(C)(=O)c3ccc(F)cc3)c2)s1 (stereo not drawn) [Example 7, S-Methyl-S-(4-fluorophenyl)-N-[4-(2-ethyl-4-(3-methylphenyl)-1,3-thiazol-5-yl)-pyridine-2-yl]-sulfoximine]	3.8 µM
CCc1nc(-c2cccc(C)c2)c(-c2ccnc(N=S(C)(=O)c3cccc(F)c3)c2)s1 (stereo not drawn) [Example 9, S-(3-Fluorophenyl)-S-methyl-N-[4-(2-ethyl-4-m-tolyl-thiazol-5-yl)-pyridin-2-yl]-sulfoximine]	5.42 µM
CCc1nc(-c2cccc(C)c2)c(-c2ccnc(N=S(C)(=O)c3cccc(C)c3)c2)s1 (stereo not drawn) [Example 10, S-(3-Methylphenyl)-S-methyl-N-[4-(2-ethyl-4-m-tolyl-thiazol-5-yl)-pyridin-2-yl]-sulfoximine]	11.1 µM
CCc1nc(-c2cccc(C)c2)c(-c2ccnc(N=S(=O)(c3ccccc3)c3ccccc3)c2)s1 [Example 11, S,S-Diphenyl-N-[4-(2-ethyl-4-m-tolyl-thiazol-5-yl)-pyridin-2-yl]-sulfoximine]	2 µM
CCc1nc(-c2cccc(C)c2)c(-c2ccnc(N=S(C)(=O)c3ccccc3C)c2)s1 (stereo not drawn) [Example 12, S-(2-Methylphenyl)-S-methyl-N-[4-(2-ethyl-4-m-tolyl-thiazol-5-yl)-pyridin-2-yl]-sulfoximine]	6.95 µM
CCc1nc(-c2cccc(C)c2)c(-c2ccnc(N=S(=O)(c3ccccc3)C(C)C)c2)s1 (stereo not shown) [Example 13, S-Isopropyl-S-phenyl-N-[4-(2-ethyl-4-(3-methylphenyl)-1,3-thiazol-5-yl)-pyridine-2-yl]-sulfoximine]	1.3 µM
CCc1nc(-c2cccc(C)c2)c(-c2ccnc(N=S(C)(=O)c3ccc(C)cc3)c2)s1 (stereo not shown) [Example 15, S-Methyl-S-4-methylphenyl-N-[4-(2-ethyl-4-(3-methylphenyl)-1,3-thiazol-5-yl)-pyridine-2-yl]-sulfoximine]	4.9 µM
CCCCS(=O)(CCCC)=Nc1cc(-c2sc(CC)nc2-c2cccc(C)c2)ccn1 [Example 16, Di-n-butyl-N-[4-(2-ethyl-4-(3-methylphenyl)-1,3-thiazol-5-yl)-pyridine-2-yl]-sulfoximine]	1.9 µM
CCc1nc(-c2cccc(C)c2)c(-c2ccnc(N=S(C)(=O)c3ccc(F)c(Cl)c3)c2)s1 (stereo not drawn) [Example 17, S-Methyl-S-(3-chloro-4-fluoro-phenyl)-N-[4-(2-ethyl-4-(3-methylphenyl)-1,3-thiazol-5-yl)-pyridine-2-yl]-sulfoximine]	10 µM
CCc1nc(-c2cccc(C)c2)c(-c2ccnc(N=S3(=O)CCCCC3)c2)s1 [Example 18, 1-Imino-N-[4-(2-ethyl-4-(3-methylphenyl)-1,3-thiazol-5-yl)-pyridine-2-yl]-tetrahydro-2H-thiopyran-1-oxide]	15 µM
CCc1nc(-c2cccc(C)c2)c(-c2ccnc(N=S3(=O)CCCC3)c2)s1 [Example 19, 1-Imino-N-[4-(2-ethyl-4-(3-methylphenyl)-1,3-thiazol-5-yl)-pyridine-2-yl]-tetrahydro-thiophene-1-oxide]	6.8 µM
CCc1nc(-c2ccccc2)c(-c2ccnc(N=S(=O)(c3ccccc3)C(C)C)c2)s1 (stereo not shown) [Example 22]	5.01 µM
CCc1nc(-c2ccccc2)c(-c2ccnc(N=S(=O)(c3ccccc3)C3CCCC3)c2)s1 (stereo not shown) [Example 28, S-Cyclopentyl-S-phenyl-N-[4-{2-ethyl-4-phenyl-thiazol-5-yl}-pyridine]-sulfoximine]	0.46 µM
CCc1nc(-c2ccccc2)c(-c2ccnc(N=S(=O)(c3ccccc3)c3ccccc3)c2)s1 [Example 32, S,S-diphenyl-N-[4-(2-ethyl-4-phenyl-thiazol-5-yl)-pyridin-2-yl]-sulfoximine]	10 µM

Next, values leading:

IC50	SMILES
2.7 µM	CCc1nc(-c2ccccc2)c(-c2ccnc(N=S(C)(=O)c3ccccc3)c2)s1 (single isomer, unassigned; (+)) [Example 21]
5.93 µM	CCc1nc(-c2ccc(F)cc2)c(-c2ccnc(N=S(=O)(c3ccccc3)C(C)C)c2)s1 (single isomer, unassigned; (+)) [Example 37, (+)-S-Isopropyl-S-phenyl-N-{4-[2-ethyl-4-(4-fluoro-phenyl)-thiazol-5-yl]-pyridin-2-yl}-sulfoximine]
2.7 µM	CCc1nc(-c2ccc(F)cc2)c(-c2ccnc(N=S(C)(=O)c3ccccc3)c2)s1 (single isomer, unassigned; (+)) [Example 40, (+)-S-Methyl-S-phenyl-N-[4-(2-ethyl-4-(4-fluoro-phenyl)-1,3-thiazol-5-yl)-pyridine-2-yl]-sulfoximine]
0.15 µM	CCc1nc(-c2cccc(C)c2)c(-c2ccnc(N=S(C)(=O)c3ccccc3)c2)s1 (single isomer, unassigned; (-)) [Example 6, (−)-S-methyl-S-phenyl-N-[4-(2-ethyl-4-(3-methylphenyl)-1,3-thiazol-5-yl)-pyridine-2-yl]-sulfoximine]
0.8 µM	CCc1nc(-c2ccccc2)c(-c2ccnc(N=S(C)(=O)c3ccccc3)c2)s1 (single isomer, unassigned; (-)) [Example 20]
3.9 µM	CCc1nc(-c2ccc(F)cc2)c(-c2ccnc(N=S(C)(=O)c3ccccc3)c2)s1 (single isomer, unassigned; (-)) [Example 33, (−)-S-Methyl-S-phenyl-N-{-4-[2-ethyl-4-(4-fluoro-phenyl)-thiazol-5-yl]-pyridin-2-yl}-sulfoximine]
1.12 µM	CCc1nc(-c2cccc(C)c2)c(-c2ccnc(N=S(C)(=O)c3ccccc3)c2)s1 (stereo not shown) [Example 4, S-Methyl-S-phenyl-N-[4-(2-ethyl-4-(3-methylphenyl)-1,3-thiazol-5-yl)-pyridine-2-yl]-sulfoximine]
1.4 µM	CCc1nc(-c2cccc(C)c2)c(-c2ccnc(N=[S@@](C)(=O)c3ccccc3)c2)s1 [Example 5, (+)-(S)-methyl-S-phenyl-N-[4-(2-ethyl-4-(3-methylphenyl)-1,3-thiazol-5-yl)-pyridine-2-yl]-sulfoximine]
55.4 µM	CCc1nc(-c2cccc(C)c2)c(-c2ccnc(N=S(=O)(CC(C)C)c3ccccc3)c2)s1 (stereo not shown) [Example 8, S-Isobutyl-S-phenyl-N-[4-(2-ethyl-4-m-tolyl-thiazol-5-yl)-pyridin-2-yl]-sulfoximine]
6.2 µM	CCc1nc(-c2cccc(C)c2)c(-c2ccnc(N=S(=O)(CC)c3ccccc3)c2)s1 (stereo not shown) [Example 14, S-Ethyl-S-Phenyl-N-[4-(2-ethyl-4-(3-methylphenyl)-1,3-thiazol-5-yl)-pyridine-2-yl]-sulfoximine]
6.6 µM	CCc1nc(-c2ccccc2)c(-c2ccnc(N=S(C)(=O)c3ccc(OC)cc3)c2)s1 (stereo not shown) [Example 23]
3.1 µM	CCc1nc(-c2ccccc2)c(-c2ccnc(N=S(C)(=O)c3ccc(F)cc3)c2)s1 (stereo not shown) [Example 27]
3.2 µM	CCc1nc(-c2ccccc2)c(-c2ccnc(N=S(C)(=O)c3ccccc3)c2)s1 (stereo not shown) [Example 31]
6.4 µM	CCc1nc(-c2ccc(F)cc2)c(-c2ccnc(N=S(C)(=O)c3ccc(OC)cc3)c2)s1 (stereo not drawn) [Example 34, S-(4-Methoxy-phenyl)-S-methyl-N-{-4-[2-ethyl-4-(4-fluoro-phenyl)-thiazol-5-yl]-pyridin-2-yl}-sulfoximine]
14.6 µM	CCc1nc(-c2ccc(F)cc2)c(-c2ccnc(N=S(=O)(c3ccccc3)C(C)C)c2)s1 (stereo not shown) [Example 35, S-Isopropyl-S-phenyl-N-{-4-[2-ethyl-4-(4-fluoro-phenyl)-thiazol-5-yl]-pyridin-2-yl}-sulfoximine]
0.17 µM	CCc1nc(-c2ccc(F)cc2)c(-c2ccnc(N=S(=O)(CC)c3ccccc3)c2)s1 (stereo not shown) [Example 38, S-Ethyl-S-phenyl-N-{4-[2-ethyl-4-(4-fluoro-phenyl)-thiazol-5-yl]-pyridin-2-yl}-sulfoximine]
4.6 µM	CCc1nc(-c2ccc(F)cc2)c(-c2ccnc(N=S(C)(=O)c3ccccc3)c2)s1 (stereo not shown) [Example 39, S-Methyl-S-phenyl-N-[4-(2-ethyl-4-(4-fluoro-phenyl)-1,3-thiazol-5-yl)-pyridine-2-yl]-sulfoximine]
1.4 µM	CCc1nc(-c2ccc(F)cc2)c(-c2ccnc(N=S(C)(=O)c3ccc(F)cc3)c2)s1 (stereo not shown) [Example 41, S-Methyl-S-4-fluoro-phenyl-N-[4-(2-ethyl-4-(4-fluoro-phenyl)-1,3-thiazol-5-yl)-pyridine-2-yl]-sulfoximine]
7.1 µM	CCc1nc(-c2ccc(F)cc2)c(-c2ccnc(N=S(=O)(c3ccccc3)C3CCCC3)c2)s1 (stereo not shown) [Example 42, S-Cyclopentyl-S-Phenyl-N-[4-(2-ethyl-4-(4-fluorophenyl)-1,3-thiazol-5-yl)-pyridine-2-yl]-sulfoximine]
